Conditions: Liquid, Falling or rolling sphere viscometry

CCCCCCCCCCCC(=O)OC [methyl dodecanoate]
Conditions	viscosity [mPa·s]
302.7 K, 30290 kPa	3.6
302.94 K, 20178 kPa	3.15
303.04 K, 110 kPa	2.53
303.04 K, 10512 kPa	2.85
312.33 K, 30212 kPa	2.87
312.5 K, 20279 kPa	2.59
312.61 K, 10214 kPa	2.33
312.63 K, 134 kPa	2.09
331.07 K, 29762 kPa	2.04
331.34 K, 20420 kPa	1.86
331.51 K, 10354 kPa	1.67
331.66 K, 132 kPa	1.51
351.24 K, 29906 kPa	1.53
351.57 K, 20226 kPa	1.37
351.74 K, 10090 kPa	1.25
351.81 K, 235 kPa	1.14
361.57 K, 30100 kPa	1.35
361.6 K, 19931 kPa	1.25
361.75 K, 10141 kPa	1.12
362.23 K, 2921 kPa	1.05

CCCCCCC(=O)OC [methyl heptanoate]
Conditions	viscosity [mPa·s]
292.04 K, 30028 kPa	1.5
292.56 K, 25040 kPa	1.42
292.87 K, 19994 kPa	1.35
293.58 K, 14994 kPa	1.28
293.85 K, 9970 kPa	1.22
294.13 K, 4967 kPa	1.17
294.2 K, 107 kPa	1.11
302.83 K, 29961 kPa	1.24
302.93 K, 25017 kPa	1.2
303.02 K, 19985 kPa	1.15
303.05 K, 14993 kPa	1.1
303.08 K, 10026 kPa	1.05
303.12 K, 5011 kPa	1
303.15 K, 102 kPa	0.95
312.49 K, 29986 kPa	1.09
312.57 K, 25001 kPa	1.05
312.62 K, 20047 kPa	1.01
312.65 K, 10009 kPa	0.92
312.66 K, 15001 kPa	0.97
312.77 K, 103 kPa	0.83
312.78 K, 5010 kPa	0.88
322.09 K, 29925 kPa	0.97
322.17 K, 19955 kPa	0.89
322.21 K, 15004 kPa	0.85
322.23 K, 10018 kPa	0.81
322.23 K, 25027 kPa	0.93
322.26 K, 5004 kPa	0.77
322.33 K, 96 kPa	0.73
331.56 K, 30001 kPa	0.87
331.67 K, 19865 kPa	0.8
331.68 K, 25041 kPa	0.83
331.74 K, 15035 kPa	0.76
331.78 K, 5007 kPa	0.69
331.78 K, 9972 kPa	0.72
331.85 K, 99 kPa	0.65
341.48 K, 14961 kPa	0.69
341.67 K, 96 kPa	0.58
341.68 K, 10141 kPa	0.65
341.72 K, 5062 kPa	0.62
341.73 K, 29980 kPa	0.78
341.8 K, 25032 kPa	0.75
341.81 K, 20048 kPa	0.72
351.26 K, 14966 kPa	0.61
351.27 K, 10077 kPa	0.58
351.31 K, 19977 kPa	0.64
351.46 K, 30010 kPa	0.7
351.49 K, 24997 kPa	0.67
361.24 K, 29993 kPa	0.64
361.37 K, 20002 kPa	0.58
361.47 K, 25022 kPa	0.61

CCCCCC(=O)OC [methyl hexanoate]
Conditions	viscosity [mPa·s]
292.99 K, 29973 kPa	1.16
293.48 K, 25055 kPa	1.11
293.98 K, 19999 kPa	1.06
294.34 K, 15024 kPa	1.01
294.63 K, 9980 kPa	0.96
294.75 K, 5079 kPa	0.92
294.86 K, 105 kPa	0.87
302.79 K, 29963 kPa	1.01
302.89 K, 24988 kPa	0.97
302.98 K, 19967 kPa	0.93
303.01 K, 15014 kPa	0.89
303.05 K, 10031 kPa	0.86
303.09 K, 5026 kPa	0.81
303.12 K, 107 kPa	0.77
312.57 K, 29951 kPa	0.89
312.62 K, 24986 kPa	0.85
312.69 K, 15010 kPa	0.78
312.69 K, 20046 kPa	0.82
312.7 K, 4988 kPa	0.71
312.71 K, 10033 kPa	0.75
312.74 K, 103 kPa	0.68
321.96 K, 29975 kPa	0.8
322.08 K, 9972 kPa	0.67
322.12 K, 19979 kPa	0.74
322.14 K, 24972 kPa	0.77
322.29 K, 98 kPa	0.61
322.29 K, 5048 kPa	0.64
322.32 K, 15008 kPa	0.7
331.74 K, 30010 kPa	0.72
331.8 K, 25008 kPa	0.69
331.83 K, 14994 kPa	0.63
331.89 K, 9984 kPa	0.6
331.93 K, 20001 kPa	0.66
341.38 K, 29965 kPa	0.64
341.39 K, 20015 kPa	0.59
341.41 K, 25042 kPa	0.62

CCCCCCCCC(=O)OC [methyl nonanoate]
Conditions	viscosity [mPa·s]
297.15 K, 30034 kPa	2.11
297.5 K, 24979 kPa	2.01
297.81 K, 20011 kPa	1.93
298.08 K, 14977 kPa	1.83
298.42 K, 9955 kPa	1.73
298.77 K, 4957 kPa	1.65
299.19 K, 103 kPa	1.56
302.91 K, 24994 kPa	1.83
302.95 K, 30000 kPa	1.91
303.01 K, 9972 kPa	1.62
303.08 K, 4961 kPa	1.54
303.09 K, 15047 kPa	1.68
303.09 K, 19964 kPa	1.76
303.1 K, 106 kPa	1.46
312.06 K, 29961 kPa	1.65
312.19 K, 25005 kPa	1.57
312.27 K, 19968 kPa	1.5
312.28 K, 9996 kPa	1.38
312.28 K, 14963 kPa	1.43
312.32 K, 4993 kPa	1.32
312.38 K, 99 kPa	1.26
321.26 K, 29949 kPa	1.42
321.36 K, 24985 kPa	1.36
321.49 K, 19988 kPa	1.31
321.56 K, 10020 kPa	1.2
321.6 K, 4982 kPa	1.14
321.61 K, 15017 kPa	1.25
321.64 K, 96 kPa	1.08
330.93 K, 30013 kPa	1.24
330.94 K, 19996 kPa	1.14
331.13 K, 9979 kPa	1.04
331.13 K, 25032 kPa	1.19
331.2 K, 14998 kPa	1.09
331.23 K, 5027 kPa	0.99
331.26 K, 108 kPa	0.94
340.91 K, 19959 kPa	0.99
340.95 K, 25015 kPa	1.04
340.96 K, 30009 kPa	1.08
341.03 K, 4962 kPa	0.86
341.06 K, 10010 kPa	0.91
341.14 K, 15019 kPa	0.94
341.21 K, 96 kPa	0.81
350.73 K, 29961 kPa	0.96
350.74 K, 24964 kPa	0.92
350.81 K, 14959 kPa	0.83
350.86 K, 20020 kPa	0.87
350.88 K, 9984 kPa	0.79
350.95 K, 4985 kPa	0.75
351.04 K, 101 kPa	0.71
360.61 K, 25005 kPa	0.82
360.67 K, 29996 kPa	0.85
360.71 K, 19982 kPa	0.77
360.82 K, 9960 kPa	0.7
360.86 K, 4959 kPa	0.66
360.89 K, 14997 kPa	0.74
360.96 K, 98 kPa	0.62

CCCCCCCC(=O)OC [methyl octanoate]
Conditions	viscosity [mPa·s]
294.65 K, 30063 kPa	1.81
294.79 K, 25004 kPa	1.73
295.08 K, 19995 kPa	1.65
295.22 K, 14978 kPa	1.58
295.3 K, 10017 kPa	1.5
295.48 K, 5004 kPa	1.43
295.62 K, 102 kPa	1.37
303.06 K, 29942 kPa	1.58
303.1 K, 25013 kPa	1.52
303.11 K, 20009 kPa	1.46
303.13 K, 5014 kPa	1.27
303.13 K, 15018 kPa	1.39
303.14 K, 9987 kPa	1.33
303.16 K, 98 kPa	1.21
312.35 K, 29980 kPa	1.37
312.4 K, 25014 kPa	1.32
312.44 K, 10045 kPa	1.15
312.44 K, 20035 kPa	1.27
312.47 K, 15056 kPa	1.21
312.49 K, 5022 kPa	1.1
312.51 K, 101 kPa	1.05
321.71 K, 29998 kPa	1.21
321.89 K, 25073 kPa	1.16
321.97 K, 9991 kPa	1.01
322.02 K, 5045 kPa	0.97
322.06 K, 20031 kPa	1.11
322.09 K, 103 kPa	0.92
322.11 K, 14992 kPa	1.06
331.51 K, 29993 kPa	1.08
331.6 K, 25035 kPa	1.04
331.61 K, 20038 kPa	1
331.62 K, 5013 kPa	0.86
331.72 K, 15022 kPa	0.95
331.73 K, 10033 kPa	0.91
331.87 K, 108 kPa	0.82
341.44 K, 29966 kPa	0.96
341.56 K, 25026 kPa	0.92
341.61 K, 15013 kPa	0.84
341.62 K, 20045 kPa	0.88
341.63 K, 4984 kPa	0.76
341.64 K, 10011 kPa	0.8
341.66 K, 97 kPa	0.72
351.58 K, 103 kPa	0.64
351.6 K, 4996 kPa	0.68
351.62 K, 29959 kPa	0.87
351.64 K, 10072 kPa	0.72
351.65 K, 15006 kPa	0.75
351.7 K, 19996 kPa	0.79
351.78 K, 25021 kPa	0.83
361.2 K, 9990 kPa	0.64
361.23 K, 4990 kPa	0.61
361.41 K, 19980 kPa	0.72
361.44 K, 15037 kPa	0.68
361.45 K, 103 kPa	0.58
361.59 K, 25011 kPa	0.74
361.74 K, 29991 kPa	0.78

Reference: the NIST ThermoML archive (doi:10.1016/j.jct.2019.02.026)
